# How the values were obtained:
# [1] = test system: LPS-stimulated RAW264.7 cell lines; assay: LPS-induced NO production (Griess) in RAW264.7; format: cell-based, murine; conditions: for The production of NO: LPS-stimulated RAW264.7, LPS group 49.86 ± 0.62, control 1.20 ± 0.38; for inhibitory activity against NO production compared with curcumin: 10 μM
# Outline: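 RAW 264.7 murine macrophages were seeded at 1 × 10^4 cells/well in 96-well plates and cultured overnight at 37 °C with 5% CO2, with dexamethasone as positive control. After 24 h, nitrite in 50 μL of supernatant was quantified by sequential 5-min room-temperature incubations with 50 μL Griess reagent A and then reagent B, reading absorbance at 540 nm.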
# [2] = test system: H2O2-stimulated PC 12 cell lines; assay: Protection against H2O2-induced oxidative damage (CCK-8); format: cell-based, rat; conditions: for Cell viability: in % (unit assumed); for cell survival rate (anti-oxidant): at 20 μM
# Outline: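 Rat PC 12 cells were plated in 96-well plates at 8000 cells/well and left to grow overnight. After a further 24 h incubation under the same conditions, each well received 10 μL CCK-8 solution. Following 2 h of incubation, absorbance at 450 nm was read on a microplate reader to measure cell viability.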
# [3] = test system: PC 12 cell lines; assay: Radiation protection in vitro (CCK-8); format: cell-based, rat; conditions: for viability at 5 µM / viability at 10 µM / viability at 20 µM: Rattus norvegicus, radiation 8.0 Gy, PC 12, radiation group 50.22 ± 1.08; for viability at 5 µM: PC-12, Dose 5 μM; for viability at 10 µM: PC-12, Dose 10 μM; for viability at 20 µM: PC-12, Dose 20 μM; for radiation protection capability compared with curcumin / radiation protection capacity: 10 μM; for radiation protection capacity: versus radiation group
# Method: The rat adrenal pheochromocytoma cells (PC 12) were used for in vitro studies. A Cell Counting Kit-8 (CCK-8, Applygen Technologies Co., Ltd., Beijing, China) assay was used to determine cell viability. […] Cells were irradiated with dose of 8.0 Gy at a dose rate of 0.8 Gy/min. Then, 10 μL CCK-8 solution was added to all the wells. After 4 h incubation, the absorbance at 450 nm of each well was measured in a multiscan photometer.
# [4] = cited from earlier work
# [5] = test system: PC 12 cell line; assay: Cytotoxicity assay (CCK-8) on PC 12; format: cell-based, rat; conditions: 20 μM
# Method: RAW264.7 cells were cultured in 96-well plates at a density of 3 × 10^4 cells/mL in Dulbecco’s modified Eagle’s medium (DMEM, Gibco, Baltimore, MD, USA) with 10% fetal calf serum (Gibco, Baltimore, MD, USA), 100 U/mL penicillin, and 100 μg/mL streptomycin. Plates were incubated in an atmosphere containing 5% CO2 at […]. PC 12 cells were cultured in 96-well plates at a density of 8000 cells/mL in Dulbecco’s modified Eagle’s medium (DMEM, Gibco, Baltimore, MD, USA) with 10% fetal calf serum (Gibco, Baltimore, MD, USA), 100 U/mL penicillin, and 100 μg/mL streptomycin. Plates were incubated in an atmosphere containing 5% CO2 at 37 °C. Cells were treated with different concentrations of test compounds for 48 h. Then, 10 μL CCK-8 solution were added to all the wells. After 4 h incubation, the absorbance at 450 nm of each well was measured in a multiscan photometer.
# [6] = Aqueous solubility determination by UV spectrophotometer; format: physicochemical; conditions: water, thermodynamic from solid, saturated solution concentration
# Method: A UV spectrophotometer was used to test the aqueous solubility of target compounds. Each compound to be tested was prepared into solutions with concentrations of 0.2 M, 0.1 M, 0.05 M, 0.025 M, 0.0125 M, 0.00625 M, and 0.003125 M. The optical density (OD) values of the prepared solutions were measured using an ultraviolet spectrophotometer, and concentration–OD-value standard curves were drawn for each compound to be tested. The saturated solutions of the target compounds were diluted by 5000 times and detected using an ultraviolet spectrophotometer to measure the OD values, respectively. The measured OD values were substituted into the corresponding concentration-OD value standard curve to calculate the diluted concentrations, which were multiplied by 5000 to obtain the saturated solution concentrations of the target compounds.
# [7] = Dose 5 μM, H2O2-induced oxidative damage, PC 12, H2O2 group 49.69 ± 1.37, control 100
# [8] = Dose 10 μM, H2O2-induced oxidative damage, PC 12, H2O2 group 49.69 ± 1.37, control 100
# [9] = Dose 20 μM, H2O2-induced oxidative damage, PC 12, H2O2 group 49.69 ± 1.37, control 100
solubility [6],Compound,The production of NO ([1]; Dose 5 μM),The production of NO ([1]; Dose 10 μM),The production of NO ([1]; Dose 15 μM),viability at 5 µM [3],viability at 10 µM [3],viability at 20 µM [3],effect on PC 12 cell proliferation [5],inhibitory activity against NO production compared with curcumin [1],"Cell viability [2, 7]","Cell viability [2, 8]","Cell viability [2, 9]",cell survival rate (anti-oxidant) ([2]; H2O2-stimulated PC 12),radiation protection capability compared with curcumin ([3]; irradiated PC 12),radiation protection capacity [3],also measured
–,"COc1cc(/C=C/C(=O)CC(=O)/C=C/c2ccc(O)c(OC)c2)ccc1O [Curcumin, curcumin, reference compound]",37.00 ± 1.12,21.55 ± 1.29,5.96 ± 0.03,55.1 ± 1.37%,59.39 ± 0.57%,75.47 ± 0.68%,–,–,–,–,–,–,–,–,"viability at 5 µM ([2]; Rattus norvegicus, PC-12, Dose 5 μM, H2O2-induced oxidative damage, PC 12, H2O2 group 49.69 ± 1.37, control 100): 59.6 ± 2.21%; viability at 10 µM ([2]; Rattus norvegicus, PC-12, Dose 10 μM, H2O2-induced oxidative damage, PC 12, H2O2 group 49.69 ± 1.37, control 100): 71.8 ± 1.52%; viability at 20 µM ([2]; Rattus norvegicus, PC-12, Dose 20 μM, H2O2-induced oxidative damage, PC 12, H2O2 group 49.69 ± 1.37, control 100): 86.4 ± 1.28%; aqueous solubility [4]: < 0.1 mg/mL"
118 mg/mL,COc1ccc(/C=C/C(=O)CC(=O)/C=C/c2cc(CN(C)C)c(O)c(OC)c2)cc1OC [Compound 5a],33.90 ± 1.94,15.60 ± 2.78,9.88 ± 0.53,58.2 ± 1.86%,68.7 ± 5.9%,105 ± 5.01%,significant promoting effect,better inhibitory activity,75.15 ± 5.90,84.53 ± 2.36,106.17 ± 3.34,106%,better radiation protection capability,a certain degree of radiation protection capacity,"anti-oxidant capacity compared with curcumin ([2]; 10 μM, H2O2-stimulated PC 12): better anti-oxidant capacity"
112 mg/mL,COc1cc(/C=C/C(=O)CC(=O)/C=C/c2ccc(OC)c(OC)c2OC)cc(CN(C)C)c1O [Compound 6a],27.02 ± 2.91,14.29 ± 1.71,5.23 ± 0.72,65.6 ± 2.17%,71.7 ± 2.56%,84.9 ± 6.57%,significant promoting effect,better inhibitory activity,60.05 ± 5.39,76.41 ± 2.29,100.96 ± 1.07,–,better radiation protection capability,a certain degree of radiation protection capacity,–
–,COc1ccc(/C=C/C(=O)CC(=O)/C=C/c2cc(CN(C)C)c(O)c(OC)c2)cc1O [Compound 11],35.85 ± 0.30,19.36 ± 1.66,7.59 ± 0.35,65.09 ± 0.4%,84.5 ± 3.4%,94.2 ± 4.35%,significant promoting effect,–,63.24 ± 1.07,72.52 ± 0.32,96.33 ± 1.04,96%,–,a certain degree of radiation protection capacity,"cell survival rate (radiation protection) ([3]; at 20 μM, irradiated PC 12): 94%"
